Experiments:
Assay type in all cases: cell-based, human
[1] = tested on: HL-60; assay: Alamar Blue cytotoxicity
Experimental: The Alamar Blue assay was used to measure cell viability, as previously described. Adherent cells were seeded in 96-well plates at a density of 7 × 10^3 cells per well, and suspended cells were seeded at 3 × 10^4 cells per well. Drugs were added to each well after overnight incubation for adherent cells or immediately after seeding for suspension cells, and incubation continued for an additional 72 h. […] Four hours (for cell lines) or 24 h (for primary cultures) before the end of incubation, 20 μL of resazurin (30 μM) (Sigma‒Aldrich Co. St. Louis, MO, USA) was added to each well. The absorbance at 570 and 600 nm was measured using a SpectraMax 190 microplate reader (Molecular Devices, Sunnyvale, CA, USA).

[2] = tested on: A-375; assay: Alamar Blue cytotoxicity
Experimental: (§1) The Alamar Blue assay was used to measure cell viability, as previously described. Adherent cells were seeded in 96-well plates at a density of 7 × 10^3 cells per well, and suspended cells were seeded at 3 × 10^4 cells per well. Drugs were added to each well after overnight incubation for adherent cells or immediately after seeding for suspension cells, and incubation continued for an additional 72 h. The positive control included doxorubicin (Laboratorio IMA S.A.I.C., Buenos Aires, Argentina). Four hours (for cell lines) or 24 h (for primary cultures) before the end of incubation, 20 μL of resazurin (30 μM) (Sigma‒Aldrich Co. St. Louis, MO, USA) was added to each well. The absorbance at 570 and 600 nm was measured using a SpectraMax 190 microplate reader (Molecular Devices, Sunnyvale, CA, USA).

[3] = tested on: A549; assay: Alamar Blue cytotoxicity
Experimental: as §1

[4] = tested on: CAL 27; assay: Alamar Blue cytotoxicity
Experimental: as §1

[5] = tested on: DU 145; assay: Alamar Blue cytotoxicity
Experimental: as §1

[6] = tested on: HCT116; assay: Alamar Blue cytotoxicity
Experimental: as §1

[7] = tested on: HSC-3; assay: Alamar Blue cytotoxicity
Experimental: as §1

[8] = tested on: HepG2; assay: Alamar Blue cytotoxicity
Experimental: as §1

[9] = tested on: Jurkat; assay: Alamar Blue cytotoxicity
Experimental: as §1

[10] = tested on: K-562; assay: Alamar Blue cytotoxicity
Experimental: as §1

[11] = tested on: KG-1a; assay: Alamar Blue cytotoxicity
Experimental: as §1

[12] = tested on: MCF-7; assay: Alamar Blue cytotoxicity
Experimental: as §1

[13] = tested on: MDA-MB-231; assay: Alamar Blue cytotoxicity
Experimental: as §1

[14] = tested on: NB4; assay: Alamar Blue cytotoxicity
Experimental: as §1

[15] = tested on: OVCAR-3; assay: Alamar Blue cytotoxicity
Experimental: as §1

[16] = tested on: PANC-1; assay: Alamar Blue cytotoxicity
Experimental: as §1

[17] = tested on: SCC-25; assay: Alamar Blue cytotoxicity
Experimental: as §1

[18] = tested on: SCC-9; assay: Alamar Blue cytotoxicity
Experimental: as §1

[19] = tested on: SCC4; assay: Alamar Blue cytotoxicity
Experimental: as §1

[20] = tested on: THP-1; assay: Alamar Blue cytotoxicity
Experimental: as §1

[21] = tested on: U-87 MG; assay: Alamar Blue cytotoxicity
Experimental: as §1

[22] = tested on: BJ; assay: Alamar Blue cytotoxicity, noncancerous cells; conditions: Homo sapiens, 72 h
Experimental: as §1

[23] = tested on: MRC-5; assay: Alamar Blue cytotoxicity, noncancerous cells; conditions: Homo sapiens, MRC5; MRC-5, 72 h
Experimental: as §1

[24] = tested on: HepG2 cells; assay: DNA content assay (internucleosomal DNA fragmentation, cell cycle); conditions: HepG2; DOX 1 μM, positive control
Experimental: Internucleosomal DNA fragmentation and cell cycle distribution were determined by a DNA content assay. The cells were stained with PI using a solution containing 0.1% Triton X-100, 2 µg/mL PI, 0.1% sodium citrate, and 100 μg/mL RNAse (all from Sigma‒Aldrich) and incubated in the dark for 15 min at room temperature. For all flow cytometry analyses, cellular fluorescence was measured using a BD LSRFortessa cytometer, BD FACSDiva software (BD Biosciences) and FlowJo software 10 (FlowJo LLC; Ashland, OR, USA). A minimum of 10,000 events were obtained per sample for intracellular staining, and a minimum of 30,000 events per sample were acquired for cell surface protein staining. Doublets were removed using FSC-A vs FCS-H and SCC-A vs SCC-H. Cellular debris was excluded from the analysis.

## COc1cccc2c1C(=O)c1c(O)c3c(c(O)c1C2=O)C[C@@](O)(C(=O)CO)C[C@@H]3O[C@H]1C[C@H](N)[C@H](O)[C@H](C)O1 [Doxorubicin]
[1]; Homo sapiens, HL-60, 72 h
  IC50: 350 nM
[1]; IC50 BJ/IC50 HL-60
  Selectivity index: 5.29
[1]; IC50 MRC-5/IC50 HL-60
  Selectivity index: 4.86
[2]; Homo sapiens, A-375, 72 h
  IC50: 160 nM
[2]; IC50 BJ/IC50 A-375
  Selectivity index: 11.56
[2]; IC50 MRC-5/IC50 A-375
  Selectivity index: 10.63
[2]; IC50 PBMC/IC50 A-375
  Selectivity index: 8.31
[3]; IC50 BJ/IC50 A549
  Selectivity index: 0.79
[3]; IC50 MRC-5/IC50 A549
  Selectivity index: 0.72
[3]; IC50 PBMC/IC50 A549
  Selectivity index: 0.57
[4]; Homo sapiens, CAL 27, 72 h
  IC50: 110 nM
[4]; IC50 BJ/IC50 CAL 27
  Selectivity index: 16.82
[4]; IC50 MRC-5/IC50 CAL 27
  Selectivity index: 15.45
[4]; IC50 PBMC/IC50 CAL 27
  Selectivity index: 12.09
[5]; Homo sapiens, DU 145, 72 h
  IC50: 240 nM
[5]; IC50 BJ/IC50 DU 145
  Selectivity index: 7.71
[5]; IC50 MRC-5/IC50 DU 145
  Selectivity index: 7.08
[5]; IC50 PBMC/IC50 DU 145
  Selectivity index: 5.54
[6]; Homo sapiens, HCT-116, HCT116, 72 h
  IC50: 860 nM
[6]; IC50 BJ/IC50 HCT116
  Selectivity index: 2.15
[6]; IC50 MRC-5/IC50 HCT116
  Selectivity index: 1.98
[6]; IC50 PBMC/IC50 HCT116
  Selectivity index: 1.55
[7]; Homo sapiens, HSC-3, 72 h
  IC50: 690 nM
[7]; IC50 BJ/IC50 HSC-3
  Selectivity index: 2.68
[7]; IC50 MRC-5/IC50 HSC-3
  Selectivity index: 2.46
[7]; IC50 PBMC/IC50 HSC-3
  Selectivity index: 1.93
[8]; Homo sapiens, HepG2, 72 h
  IC50: 320 nM
[8]; IC50 BJ/IC50 HepG2
  Selectivity index: 5.78
[8]; IC50 MRC-5/IC50 HepG2
  Selectivity index: 5.31
[8]; IC50 PBMC/IC50 HepG2
  Selectivity index: 4.16
[9]; Homo sapiens, Jurkat, 72 h
  IC50: 60 nM
[9]; IC50 BJ/IC50 Jurkat
  Selectivity index: 30.83
[9]; IC50 MRC-5/IC50 Jurkat
  Selectivity index: 28.33
[9]; IC50 PBMC/IC50 Jurkat
  Selectivity index: 22.17
[10]; Homo sapiens, K562, K-562, 72 h
  IC50: 1650 nM
[10]; IC50 BJ/IC50 K-562
  Selectivity index: 1.12
[10]; IC50 MRC-5/IC50 K-562
  Selectivity index: 1.03
[10]; IC50 PBMC/IC50 K-562
  Selectivity index: 0.81
[11]; Homo sapiens, KG-1a, 72 h
  IC50: 70 nM
[11]; IC50 BJ/IC50 KG-1a
  Selectivity index: 26.43
[11]; IC50 MRC-5/IC50 KG-1a
  Selectivity index: 24.29
[11]; IC50 PBMC/IC50 KG-1a
  Selectivity index: 19.00
[12]; Homo sapiens, MCF7, MCF-7, 72 h
  IC50: 2280 nM
[12]; IC50 BJ/IC50 MCF-7
  Selectivity index: 0.81
[12]; IC50 MRC-5/IC50 MCF-7
  Selectivity index: 0.75
[12]; IC50 PBMC/IC50 MCF-7
  Selectivity index: 0.58
[13]; Homo sapiens, MDA-MB-231, 72 h
  IC50: 430 nM
[13]; IC50 BJ/IC50 MDA-MB-231
  Selectivity index: 4.30
[13]; IC50 MRC-5/IC50 MDA-MB-231
  Selectivity index: 3.95
[13]; IC50 PBMC/IC50 MDA-MB-231
  Selectivity index: 3.09
[14]; Homo sapiens, NB-4, NB4, 72 h
  IC50: 90 nM
[14]; IC50 BJ/IC50 NB4
  Selectivity index: 20.56
[14]; IC50 MRC-5/IC50 NB4
  Selectivity index: 18.89
[14]; IC50 PBMC/IC50 NB4
  Selectivity index: 14.78
[15]; Homo sapiens, OVCAR-3, 72 h
  IC50: 1060 nM
[15]; IC50 BJ/IC50 OVCAR-3
  Selectivity index: 1.75
[15]; IC50 MRC-5/IC50 OVCAR-3
  Selectivity index: 1.60
[15]; IC50 PBMC/IC50 OVCAR-3
  Selectivity index: 1.25
[16]; Homo sapiens, PANC-1, 72 h
  IC50: 1110 nM
[16]; IC50 BJ/IC50 PANC-1
  Selectivity index: 1.67
[16]; IC50 MRC-5/IC50 PANC-1
  Selectivity index: 1.53
[16]; IC50 PBMC/IC50 PANC-1
  Selectivity index: 1.20
[17]; Homo sapiens, SCC-25, 72 h
  IC50: 1440 nM
[17]; IC50 BJ/IC50 SCC-25
  Selectivity index: 1.28
[17]; IC50 MRC-5/IC50 SCC-25
  Selectivity index: 1.18
[17]; IC50 PBMC/IC50 SCC-25
  Selectivity index: 0.92
[18]; Homo sapiens, SCC-9, 72 h
  IC50: 1000 nM
[18]; IC50 BJ/IC50 SCC-9
  Selectivity index: 1.85
[18]; IC50 MRC-5/IC50 SCC-9
  Selectivity index: 1.70
[18]; IC50 PBMC/IC50 SCC-9
  Selectivity index: 1.33
[19]; Homo sapiens, SCC-4, SCC4, 72 h
  IC50: 1800 nM
[19]; IC50 BJ/IC50 SCC4
  Selectivity index: 1.03
[19]; IC50 MRC-5/IC50 SCC4
  Selectivity index: 0.94
[19]; IC50 PBMC/IC50 SCC4
  Selectivity index: 0.74
[20]; Homo sapiens, THP-1, 72 h
  IC50: 140 nM
[20]; IC50 BJ/IC50 THP-1
  Selectivity index: 13.21
[20]; IC50 MRC-5/IC50 THP-1
  Selectivity index: 12.14
[20]; IC50 PBMC/IC50 THP-1
  Selectivity index: 9.50
[21]; Homo sapiens, U-87 MG, 72 h
  IC50: 520 nM
[21]; IC50 BJ/IC50 U-87 MG
  Selectivity index: 3.56
[21]; IC50 MRC-5/IC50 U-87 MG
  Selectivity index: 3.27
[21]; IC50 PBMC/IC50 U-87 MG
  Selectivity index: 2.56
[22]
  IC50: 1850 nM
[23]
  IC50: 1700 nM
[24]
  DNA fragmentation: also caused DNA fragmentation
